Laboratory results from patent US10383834B2, “Reduced dose intravenous acetaminophen” (MALLINCKRODT HOSPITAL PRODUCTS IP LIMITED, priority 2007, dated 2019).

Key:
[1] = Safety assessment in Phase III open-label multi-day study (adverse event reporting, daily liver enzymes, laboratory, vital signs); format: in vivo, human; settings: for Tolerability: up to 5 days
Protocol: A Phase III, open-label, prospective, multi-center, repeated dose, randomized, multi-day safety and efficacy study was conducted in […] subjects. The subjects were randomized as follows: 92 subjects to a q6 group (1 g of IV acetaminophen every 6 hours), 91 subjects to a q4 group (650 mg of IV acetaminophen every 4 hours), and 28 subjects to a standard of care control group, which could include oral acetaminophen, but no IV acetaminophen. Subjects who completed 5 days of study treatment included 63 in the q6 group, 59 in the q4 group and 26 in the control group. The primary endpoint was an assessment of safety using spontaneous adverse event reporting and daily liver enzymes. Efficacy evaluations were also performed.
All analyses of safety were conducted on the safety population.
Percentage of subjects withdrawn due to adverse event, percentage of subjects with adverse events (AEs) or serious adverse events (SAEs), and percentage of subjects with clinically meaningful changes in laboratory parameters were summarized.
All adverse events and serious adverse events were coded according to the Medical Dictionary for Regulatory Activities (MedDRA), Version 10.0. […] Liver function test abnormalities were graded using the Common Terminology Criteria for Adverse Events.
For each clinical laboratory parameter, descriptive statistics (n, mean, standard deviation, median, and range) were tabulated for baseline and final values. Change from baseline was tabulated for those subjects who had both baseline and final values. Liver function tests were also evaluated using values that were normalized to the upper limit of normal values for the local laboratory.
A shift table was prepared to present the shift in baseline clinical laboratory values that were clinically relevantly high or low at baseline and/or final measurement.
Descriptive statistics (n, mean, standard deviation, median, and range) were tabulated for changes in vital signs from baseline to final measurement.

[2] = Subject Global Evaluations in Phase III open-label multi-day study of IV acetaminophen (4 point categorical rating scale); format: in vivo, human; settings: for Subject Global Assessment, level of satisfaction with the study treatments, difference versus control group: any of the assessment points
Protocol: A Phase III, open-label, prospective, multi-center, repeated dose, randomized, multi-day safety and efficacy study was conducted in 213 subjects. The subjects were randomized as follows: 92 subjects to a q6 group (1 g of IV acetaminophen every 6 hours), 91 subjects to a q4 group (650 mg of IV acetaminophen every 4 hours), and 28 subjects to a standard of care control group, which could include oral acetaminophen, but no IV acetaminophen. […] The primary endpoint was an assessment of safety using spontaneous adverse event reporting and daily liver enzymes. Efficacy evaluations were also performed. All analyses of efficacy were conducted on the modified intent-to-treat population separately for the two indications (acute pain and fever). Subjects' Global Evaluations were summarized descriptively (n, mean, SD, median, minimum, and maximum) by treatment group for each study day and for overall assessments. Summary statistics were also provided for each site. Comparisons of efficacy endpoints between the following pairs of treatment groups were investigated using two-sided tests at the 5% level of significance: • IV acetaminophen 1 g versus IV acetaminophen 650 mg • IV acetaminophen 1 g versus standard of care treatment • IV acetaminophen 650 mg versus standard of care treatment A one-way analysis of variance (ANOVA) model with treatment group as the factor was used to test the treatment difference between these pairs. All groups were included in this analysis model. The p-values from the ANOVA model were presented along with the summary statistics. […] A one-way ANOVA model with treatment group as the factor was used to test the treatment difference between each treatment pair: • IV acetaminophen 1 g q6h versus IV acetaminophen 650 mg […] • IV acetaminophen 1 g q6h versus standard of care treatment (Control) • IV acetaminophen 650 mg […] versus standard of care treatment (Control) All endpoints were tested at the 0.05 significance level (two-sided).

Compound: CC(=O)Nc1ccc(O)cc1 [IV acetaminophen, acetaminophen]
- Tolerability ([1]; 650 mg dose group (q4h)): well tolerated
- Tolerability ([1]; 1000 mg dose group (q6h)): well tolerated
- Frequency of liver enzyme elevations seen in the treatment groups ([1]; between treatment groups, includes alanine aminotransferase and aspartate aminotransferase): comparable
- Frequency of serious, severe, related, or overall treatment emergent adverse events (TEAEs), difference between the treatment groups ([1]; q6 (1 g), q4 (650 mg) and standard of care control groups): no clinically relevant differences
- Subject Global Assessment, level of satisfaction with the side effects related to study treatments, mean rating ([2]; 650 mg q4h IV, day 4, scale 0-3, control 2.2, p=0.1162): 2.5
- Subject Global Assessment, level of satisfaction with the side effects related to study treatments, mean rating ([2]; 650 mg q4h IV, day 5 24 h lookback, scale 0=poor to 3=excellent, control 2.0, p=0.0167): 2.4
- Subject Global Assessment, level of satisfaction with the side effects related to study treatments, mean rating ([2]; 650 mg q4h IV, end of day 5 prior to discharge 24 h lookback, scale 0-3, control 2.0, p=0.0129): 2.4
- Efficacy conclusion based upon the global satisfaction ratings ([2]; 650 mg q4h group): efficacious
- Subject Global Assessment, level of satisfaction with the study treatments, difference versus control group ([2]; 650 mg q6h group (so in the source) versus standard of care control): no statistically significant differences
- Subject Global Assessment, level of satisfaction with the side effects related to study treatments, mean rating ([2]; 1 g q6h IV, day 4, scale 0-3, control 2.2, p=0.0744): 2.5
- Subject Global Assessment, level of satisfaction with the side effects related to study treatments, mean rating ([2]; 1 g q6h IV, day 5 24 h lookback, scale 0-3, control 2.0, p=0.0062): 2.4
- Subject Global Assessment, level of satisfaction with the side effects related to study treatments, mean rating ([2]; 1 g q6h IV, end of day 5 prior to discharge 24 h lookback, scale 0-3, control 2.0, p=0.0073): 2.5
- Efficacy conclusion based upon the global satisfaction ratings ([2]; 1 g q6h group): efficacious
- Subject Global Assessment, level of satisfaction with the study treatments, difference versus control group ([2]; 1 g q6h group versus standard of care control): no statistically significant differences
- Subject Global Assessments (study treatments or side effects), difference between the two active treatment groups ([2]; 1 g q6h versus 650 mg q4h, daily 24 h lookback day 2 to end of day 5): no statistically significant differences
